Here are results for one molecule from publication PMC8333062, “Chemical tools for epichaperome-mediated interactome dysfunctions of the central nervous system” (Nature Communications, 2021).

Values joined by “and” are separate entries in the source; they are usually repeats but may differ in a detail not shown here. Identical values can stand only once.

The data set deals with MDA-MB-468 cells. Put plainly: Cell viability, ATP levels 72 h. The data set is classed as cell-based, human. On the set-up: key to Cell viability (ATP levels): ATP levels as % of vehicle (DMSO) control. To be noted: replicates; for Cell viability (ATP levels): MDA-MB-468. How it is done: Supplementary Fig. 15: PU-HZ151 activity in cells is unaffected by Pgp overexpression. a Two Pgp-positive cells lines, Kasumi-1 and HepG2, were tested for epichaperome-positivity. β-Actin, loading control. b ATP levels in cell treated for 72 h with 0 to 1 µM PU-HZ151. Data are presented as means ±s.e.m. of three experimental repeats. Control, vehicle (DMSO) treated cells. c Western blot analysis of aberrant signaling pathway inhibition by […]
(also on this page, place not known: MDA‐MB-468ASPC1Kasumi Hep G2 ATP levels %Control MDA‐MB-468ASPC1Kasumi 1Hep G2 β-Actin HSP90α Native-PAGE SDS PAGE 100- β-Actin 1)

`CC(C)(C)CNCCn1c(Sc2cc3c(cc2I)OCO3)nc2c(N)ncnc21` [Compound 85]: the viability at 0.00195312 µM (Homo sapiens, MDA-MB-468, MDA-MB-468, 1.95312 nM) turned out to be 97.8%. The viability at 0.00390625 µM (Homo sapiens, MDA-MB-468, MDA-MB-468, 3.90625 nM) is 107%. Moreover, the viability at 0.015625 µM (Homo sapiens, MDA-MB-468, MDA-MB-468, 15.625 nM) came to 107%. In addition, the viability at 0.03125 µM (Homo sapiens, MDA-MB-468, MDA-MB-468, 31.25 nM) stood at 34.4%. In addition, the viability at 0.125 µM (Homo sapiens, MDA-MB-468, MDA-MB-468, 125 nM) came to 7.51%. The viability at 0.5 µM (Homo sapiens, MDA-MB-468, MDA-MB-468, 500 nM) stood at 13.5%. For the same molecule, the “Cell viability (ATP levels)” value was 110.592 and 103.375 (1.95312 nM, listed as PU-HZ151, 0.00195312 µM); 119.425 and 107.367 (3.90625 nM, listed as PU-HZ151, 0.00390625 µM); 108.225 and 84.5333 and 99.0667 (7.8125 nM, listed as PU-HZ151, 0.0078125 µM); 116.083 and 108.992 (15.625 nM, listed as PU-HZ151, 0.015625 µM); 42.5333 and 26.2083 (31.25 nM, listed as PU-HZ151, 0.03125 µM); 4.317 and 13.7833 and 10.55 (62.5 nM, listed as PU-HZ151, 0.0625 µM). The “Cell viability (ATP levels)” value runs as follows: (125 nM, listed as PU-HZ151, 0.125 µM) 8.242 and 5.217; (500 nM, listed as PU-HZ151, 0.5 µM) 14.6417 and 13.2667; (1000 nM, listed as PU-HZ151, 1 µM) 13.625 and 13.2667 and 6.525.

Broadly, the viability is a read-out of living cells in per cent, often relative to untreated cells.
